Results taken from publication PMC4569415, “Pro-Oxidant Activity of Amine-Pyridine-Based Iron Complexes Efficiently Kills Cancer and Cancer Stem-Like Cells” (PLoS ONE, 2015).
Several values for one entry are separate records, joined by “and”; a condition that tells them apart may be missing. Equal entries are not always repeated.

Key:
1BR3G = assay: MTT cytotoxicity assay; assay type: cell-based; settings: Homo sapiens, 48 h of treatment, non malignant cells
Method: (§1) The cytotoxic activity of the compounds was determined by MTT reduction assay as described. Compounds were diluted in Milli-Q water to obtain 1 mmol/L stock solutions. Appropriate aliquots of these solutions were diluted in the corresponding cell culture medium to obtain the final working concentrations. Aliquots of 5000 1BR3G cells, 6000 MCF-7, 6000 PC-3 cells, 10 000 CAPAN-1 cells, 4000 MCF 10A cells, 4000 HMLE cells or 4000 CCD-18Co cells were seeded in 96-well plates, 24 h prior to the treatments. Hematological cell lines were seeded at 400 000 cells/mL. Cells were treated with the corresponding compound at concentrations ranging from 0 to 100 μmol/L for 48 h. Three replicates for each compound were used. The IC50 was established for each compound by standard non-linear regression and curve fitting using GraphPad Prism (Graph Pad software Inc., La Jolla, CA, USA).

CCD-18Co = assay: MTT cytotoxicity assay; assay type: cell-based; settings: Homo sapiens, 48 h of treatment, non malignant cells
Method: as §1

HMLE = assay: MTT cytotoxicity assay; assay type: cell-based; settings: Homo sapiens, 48 h of treatment, non malignant cells
Method: as §1

JURKAT = assay: MTT cytotoxicity assay; assay type: cell-based; settings: Homo sapiens, 48 h of treatment
Method: as §1

MCF-10A = assay: MTT cytotoxicity assay; assay type: cell-based; settings: Homo sapiens, 48 h of treatment, non malignant cells
Method: as §1

PC-3 = assay: MTT cytotoxicity assay; assay type: cell-based; settings: Homo sapiens, 48 h of treatment
Method: as §1

Z-138 = assay: MTT cytotoxicity assay; assay type: cell-based; settings: Homo sapiens, 48 h of treatment
Method: as §1

MCF-7 cells [1] = assay: Colony formation (clonogenic) assay; assay type: cell-based, human; settings: 10 μmol/L
Method: MCF-7 cells were seeded in 12-well plates. […] Subsequently, cells were washed with PBS, collected with trypsin and plated at low density (3000 cells in a […]). Cells were allowed to divide and form colonies for 7–10 days; after which, colonies were fixed and stained with 2% methylene blue in 50% ethanol. The number of colonies in each plate was determined using the Alpha Innotech Imaging system (Alpha Innotech, San Leandro, CA).

caspase 3/7 = assay: Caspase-Glo 3/7 luminometric assay; assay type: cell-based; settings: 10 μmol/L, 48 h, panel of human cancer cell lines
Method: Enzymatic caspase activity was determined after exposing the cells to compound 1, 2 and 5 at 10 μmol/L for 48 h. Caspase 3/7 activity was measured with the luminometric Caspase-Glo 3/7assay (Promega, Madison, WI, USA) using a Synergy HT multi-detection microplate reader (Bio-Tek).

MCF-7 and CAPAN-1 cells = assay: MTT cell viability with modulators (QVD-Oph, FeCl2); assay type: cell-based, human; settings: 48 h; for effect of FeCl2 co-incubation on cytotoxicity of the ligand: FeCl2 100 μmol/L co-incubation, 2 at 5 μmol/L, 1 and 5 at 10 μmol/L
Method: as §1
Fig 4 Induction of caspase activity. (A) The indicated cell lines were treated for 48 h with compounds 1, 2 and 5 (10 μmol/L) and caspase 3/7 activity was measured as indicated in Materials and Methods. Bar charts show the fold increase in caspase activity relative to untreated (control) and represent the mean±SD from three independent experiments performed in triplicate. (B) MCF-7 and CAPAN-1 cells were treated for 48 h with the ligands (10 μM) in the absence (-) or presence (+) of the pan-caspase inhibitor QVD-Oph (20 μM) and cell viability was measured with the MTT assay. […] Data represents the mean ± SD of 3 independent experiments performed in triplicate. The differences between absence and presence of QVD-OPh treatment were statistically significant at * p<0.05, **p<0.01 and ***p<0.001.
Fig 9 Effects of iron on 1, 2 and 5 activity. (A) Effect of 2 h FeCl2 pre-incubation (FeCl2 p) (dotted line) or co-incubation (FeCl2 c) (dashed line) at 1, 10 or 100 μmol/L on the cytotoxicity of 2 (5 μmol/L) in MCF-7 and CAPAN-1 cells. FeCl2 alone was included as a control (solid line). Cell viability was determined after 48 h of treatment by the MTT assay. (B) Effect of FeCl2 pre-incubation or co-incubation (100 μmol/L) on the cytotoxicity of 2 (5 μmol/L), 1 and 5 (10 μmol/L). Cells treated with the ligands alone were included as a reference (control). (C) ROS induction in CAPAN-1 cells after 24 h treatment with 2 (10 μmol/L) alone, together with FeCl2 or after FeCl2 pre-incubation (at 100 μmol/L). Results are presented as a percentage of untreated cells and represent mean±SD of 3 independent experiments. *p < 0.05 versus control cells.

MCF-7 cells [2] = assay: Cellular labile iron pool with calcein-AM; assay type: cell-based, human; settings: MCF-7, pre-incubation with ligands
[3] = tested on: supercoiled pUC18 plasmid DNA; assay: DNA cleavage by agarose gel electrophoresis; assay type: biochemical; settings: 25 μM, 1 h, 37°C
Method: DNA cleavage was monitored by agarose gel electrophoresis. A stock solution of pUC18 DNA was freshly prepared in Milli-Q water at a concentration of […] (1512 μmol/L nucleotides; 756 μmol/L bp). Reactions were performed by mixing 0.5 μl of pUC18 with appropriate aliquots of the compounds and 1 μL of activating agent solution (35% wt/vol H2O2 in H2O). Cacodylate buffer (0.1 M, pH 6.0) was added to the mixture to give a final volume of 20 μl. The final concentration of pUC18 DNA was 37.8 μmol/L in nucleotides (18.9 μmol/L bp). Samples were incubated for 1 h at 37°C; reactions were quenched by adding 6 μL of a buffer solution consisting of bromophenol blue (0.25%), xylene cyanol (0.25%), and glycerol (30%). Subsequently, the samples were subjected to electrophoresis in 0.8% agarose gels in 0.5×TBE buffer (0.045 mol/L Tris, 0.045 mol/L boric acid, and 1 mmol/L EDTA) at 100 V for 1 h and 40 min. Gels were stained with ethidium bromide (10 mg/mL in TBE) for 15 min and visualized under UV transillumination. DNA bands were captured using the ProgRes CapturePro 2.7 system and the intensity of each band was quantified with the GelQuant version 2.7 software (DNR Bio-Imaging Systems, Jerusalem, Israel) using a correction factor of 1.31 to compensate for the reduced ethidium bromide uptake of supercoiled plasmid pUC18 DNA [47]. The proportion of different forms of plasmid DNA was established for each treatment. To test the involvement of ROS in strand scission and possible complex–DNA interaction sites, various ROS scavengers and groove binders were added to the reaction mixtures. The scavengers used were Tiron (10 mmol/L), sodium azide (0.4 mol/L), and dimethyl sulfoxide (DMSO, 3 μL). The groove binders used were methyl green (20 mmol/L) and Hoechst (40 μmol/L).

c1ccc(CN2CCC[C@H]2[C@@H]2CCCN2Cc2ccccn2)nc1 [Compound 1]
IC50 (1BR3G): 12.7 ± 1.6 µM
IC50 (CCD-18Co): 27 ± 4.4 µM
IC50 (HMLE): 6.4 ± 4 µM
IC50 (JURKAT): 15.1 ± 3.1 µM
IC50 (MCF-10A): 18.8 ± 2.9 µM
IC50 (PC-3): 8.5 ± 1.4 µM
IC50 (Z-138): 4.8 ± 1.2 µM
reduction of colony number vs control (MCF-7 cells [1]; 3 h exposure): 0%
reduction of colony number vs control (MCF-7 cells [1]; 5 h exposure): 18.7%
reduction of colony number vs control (MCF-7 cells [1]; 12 h exposure): 40.5%
reduction of colony number vs control (MCF-7 cells [1]; 24 h exposure): 57% and 56.6%
caspase 3/7 activation (caspase 3/7): significant caspase 3/7 activation in lymphoma (Z-138, Jeko-1, Granta and SP-53) but not in leukemia (JURKAT) or glioma (LN229 and U87MG) cell lines
effect of FeCl2 co-incubation on cytotoxicity of the ligand (MCF-7 and CAPAN-1 cells): inhibited the cytotoxicity of the ligand in CAPAN-1, but not in MCF-7 cells
calcein fluorescence compared with untreated cells (MCF-7 cells [2]): 131.4±13.2%
Proportion of plasmid DNA Form I (supercoiled) ([3]; + H2O2): 52.8%
Proportion of plasmid DNA Form II (open) ([3]; + H2O2): 47.2%
Proportion of plasmid DNA Form I (supercoiled) ([3]; absence of H2O2): 84.3%
Proportion of plasmid DNA Form II (open) ([3]; absence of H2O2): 15.7%

CN1CCN(Cc2ccccn2)CCN(Cc2ccccn2)CC1 [Compound 5]
IC50 (1BR3G): 18 ± 4.2 µM
IC50 (CCD-18Co): 53.5 ± 3.5 µM
IC50 (HMLE): 6.1 ± 0.1 µM
IC50 (JURKAT): 5.4 ± 1.3 µM
IC50 (MCF-10A): 23.8 ± 1.3 µM
IC50 (PC-3): 7.7 ± 0.3 µM
IC50 (Z-138): 2.9 ± 0.4 µM
reduction of colony number vs control (MCF-7 cells [1]; 24 h exposure): 53%
caspase 3/7 activation (caspase 3/7): activating caspase 3/7 in most cell lines except PC-3 cells
effect of FeCl2 co-incubation on cytotoxicity of the ligand (MCF-7 and CAPAN-1 cells): Neither pretreatment nor co-incubation with FeCl2 affected
calcein fluorescence compared with untreated cells (MCF-7 cells [2]): only a moderate iron-chelating effect
Proportion of plasmid DNA Form I (supercoiled) ([3]; + H2O2): 53.3%
Proportion of plasmid DNA Form II (open) ([3]; + H2O2): 46.7%
Proportion of plasmid DNA Form I (supercoiled) ([3]; absence of H2O2): 92.3%
Proportion of plasmid DNA Form II (open) ([3]; absence of H2O2): 7.7%

CN(C)c1ccnc(CN2CCC[C@H]2[C@@H]2CCCN2Cc2cc(N(C)C)ccn2)c1 [Compound 2]
IC50 (1BR3G): 7.5 ± 0.5 µM
IC50 (CCD-18Co): 20.7 ± 0.3 µM
IC50 (HMLE): 7 ± 0.3 µM
IC50 (JURKAT): 7.2 ± 1.9 µM
IC50 (MCF-10A): 6.5 ± 1.3 µM
IC50 (PC-3): 3.8 ± 0.2 µM
IC50 (Z-138): 4.4 ± 0.3 µM
reduction of colony number vs control (MCF-7 cells [1]; 3 h exposure): 39%
reduction of colony number vs control (MCF-7 cells [1]; 24 h exposure): almost abolished
caspase 3/7 activation (caspase 3/7): clearly increased caspase 3/7 activity in all cell lines
effect of FeCl2 co-incubation on cytotoxicity of the ligand (MCF-7 and CAPAN-1 cells): clearly inhibited
increase in cell viability by pan-caspase inhibitor QVD-Oph (MCF-7 and CAPAN-1 cells; ligand 10 μM, QVD-Oph 20 μM): lack of reversion
calcein fluorescence compared with untreated cells (MCF-7 cells [2]): 133.8±10.02%
Proportion of plasmid DNA Form I (supercoiled) ([3]; + H2O2): 56.8%
Proportion of plasmid DNA Form II (open) ([3]; + H2O2): 43.2%
Proportion of plasmid DNA Form I (supercoiled) ([3]; absence of H2O2): 91.3%
Proportion of plasmid DNA Form II (open) ([3]; absence of H2O2): 8.7%
